Converted amounts (≈) assume the structure as drawn. “And” between values parts separate entries of the source, which are not always exact repeats. Identical values can stand only once.
Assays:
E. coli clinical strains = experiment: Antibacterial susceptibility studies (MIC50 and MIC90) with clinical strains, CLSI guidelines; format: cell-based
[1] = system: P. aeruginosa [ATCC27853]; experiment: Neutropenic lung infection model in rat; format: in vivo; conditions: 30 mg/kg, i.v. bolus, neutropenic rat, 24 h post infection
Method: The purpose of this study was to evaluate the efficacy of example 15 against P. aeruginosa [ATCC27853], following single dose intravenous infusion doses of 10, 30 and 100 mg/kg in a neutropenic lung infection model in rats
Prior to the start of the infection process, all animals were divided into different groups. All grouped cages of animals were carried to a procedure room, close to a biological safety cabinet. All infections were conducted in a biological safety cabinet, with appropriate personnel protection. Animals were placed into an induction chamber and anaesthesia was induced by exposing the animals to 3-5% Isoflurane in an oxygen flow set at approximately (˜) 1 liter per minute (LPM). Once the animals were in a sufficiently deep plane of anaesthesia as monitored by pedal reflex, they were removed and infected (2). […] A gentle mixing of inoculum between two animals was followed for uniform distribution.
The IV formulation vehicle used for example 15 was 10% of L-ascorbic acid in fresh MilliQ water (w/v) with pH adjusted to ˜4.0 with 1N Sodium hydroxide solution (w/v), and the dose volume was 10 mL/kg. Meropenem was formulated in saline. […] The dose levels of the test Example 15 were 10, 30 and 100 mg/kg.
All the animals in groups were sacrificed at 24 h post infection, as specified in experimental design, by an overdose of CO2 in an appropriate exposure chamber. The group 1 animals were sacrificed at 4 hrs post infection. The euthanized animals were dipped into 70% ethanol for surface decontamination. Entire Lung was aseptically isolated, weighed and placed into 1 mL of sterile CSDB broth, and homogenized (Omni Tip (220 V hand held)). Serial ten-fold dilutions of the lungs homogenates were prepared in sterile CSD broth and 0.05 mL of four dilutions for each tissue was plated onto CSDA agar plates. Bacterial colonies were enumerated following overnight incubation at 37° C. Bacterial densities were estimated as Log10 CFU/g lung. The Mean±SD Log10 CFU/g lung was estimated in each group. Significant differences between group means and control were analyzed by one way ANOVA, followed by a Dunnett's multiple comparison test, using Graphpad Prism at 95% confidence levels.

[2] = system: P. aeruginosa clinical strains; experiment: Antibacterial susceptibility studies (MIC50 and MIC90) with clinical strains, CLSI guidelines; format: cell-based
[3] = system: A. baumannii clinical strains; experiment: as above; format: cell-based
[4] = system: E. cloacae clinical strains; experiment: as above; format: cell-based
E. coli [ATCC25922] = experiment: Urinary tract infection (UTI) rat model; format: in vivo; conditions: 30 mg/kg, i.v. bolus, rat UTI, 24 h post infection
Method: The purpose of this study is to assess the efficacy of Example 15 against E. coli [ATCC25922] following single dose intravenous infusion doses of 3, 10 and 30 mg/kg in a Urinary Tract Infection Rat Model
Prior to the start of the infection process all animals were divided into different groups. All grouped cages of animals were carried to a procedure room, close to a biological safety cabinet. All infections were conducted in a biological safety cabinet, with appropriate personnel protection. Animals were anaesthetized by intraperitoneal injection of ketamine & xylazine (60+10 mg/kg i.p.) cocktail. Once the animals were in a sufficiently deep plane of anaesthesia as monitored by pedal reflex, the abdominal wall of each rat was shaved with electric clippers and the skin was cleansed with 10% povidine iodine. After a 1.5 to 2 cm lower abdominal wall incision, the abdominal wall muscles were separated with blunt dissection. […] After the replacement of the bladder to its original location, the abdominal muscles were approximated using suture and the skin was closed. The wounds were cleansed using 10% povidine iodine.
The IV formulation vehicle used was 10% of L-ascorbic acid in fresh MilliQ water (w/v) with pH adjusted to 4.0 with 1N Sodium hydroxide solution (w/v), and the dose volume was 10 mL/kg. Meropenem was prepared in MilliQ water and the pH of solution was adjusted to 4.5 using HCl. Four hours post infection, animals were dosed intravenously, as single doses (for test compounds), as a constant rate infusion, under Ketamine 60 mg/kg IP+Xylazine 10 mg/kg IP anesthesia, at a dose volume of 10 ml/kg, at the rate of 0.03 ml/min. The dose levels of the test compounds were 3, 10 and 30 mg/kg. Meropenem was administered as a single bolus dose at a dose volume of 5 ml/kg. All the animals were sacrificed at 24 h post infection, as specified in experimental design, by an overdose of CO2 in an appropriate exposure chamber. The group 1 animals were sacrificed at 4 h post infection.
The euthanized animals were dipped into 70% ethanol for surface decontamination. The organs were removed aseptically; the bladder was cut away near the urethra, and the kidneys were removed by blunt dissection to avoid bleeding. The bladder and each kidney separately were be homogenized in PBS. The CFU per milliliter homogenate of bladder, & kidney were determined after 18 to 24 h of incubation at 37° C.

[5] = system: K. pneumoniae clinical strains; experiment: Antibacterial susceptibility studies (MIC50 and MIC90) with clinical strains, CLSI guidelines; format: cell-based
[6] = Enterobacter cloacae, E. cloacae clinical strains (88 strains)

Compound `C[C@@H](O)[C@H]1C(=O)N2C(C(=O)O)=C(S[C@@H]3CN[C@H](C(=O)N(C)C)C3)[C@H](C)[C@H]12` [Meropenem, reference compound] has an MIC ATCC25922 (E. coli clinical strains; E. coli reference strain ATCC25922, no unit in this line (MIC50/MIC90 lines: μg/ml)) of 0.06 µg/mL (≈ 0.156 µM), an MIC50 (E. coli clinical strains; Escherichia coli) of 0.06 µg/mL (≈ 0.156 µM) and an MIC90 (E. coli clinical strains; Escherichia coli) of 4 µg/mL (≈ 10.4 µM). For the same compound, the Minimum (E. coli clinical strains; lowest MIC among E. coli clinical strains (201 strains; Example 15: 176), no unit in this line) was 0.03, the “MEAN ± SD (Log 10 CFU/g Lung)” value [1] was 5.04 ± 0.14 Log 10 CFU/g Lung and the “Mean Log 10CFU/g lung reduction (wrt 4 h PI control 5.78 Log10CFU/g lung)” value [1] was 0.74 Log10CFU/g lung. For the same compound, the “Log 10 CFU/g Lung” value ([1]; individual animals) was 5.03 Log 10 CFU/g Lung and 5.18 Log 10 CFU/g Lung and 4.90 Log 10 CFU/g Lung, the MIC ATCC27853 ([2]; P. aeruginosa reference strain ATCC27853, no unit in this line) was 0.5 µg/mL (≈ 1.3 µM) and the MIC50 ([2]; Pseudomonas aeruginosa) was 2 µg/mL (≈ 5.22 µM). For the same compound, the MIC90 ([2]; Pseudomonas aeruginosa) was 8 µg/mL (≈ 20.9 µM), the Minimum ([2]; lowest MIC among P. aeruginosa clinical strains (215 strains; Example 15: 176), no unit in this line) was 0.03 and the MIC ATCC19606 ([3]; A. baumannii reference strain ATCC19606, no unit in this line) was 0.5 µg/mL (≈ 1.3 µM). It also gave an MIC50 ([3]; Acinetobacter baumannii) of 8 µg/mL (≈ 20.9 µM), an MIC90 ([3]; Acinetobacter baumannii) of 32 µg/mL (≈ 83.4 µM) and a Minimum ([3]; lowest MIC among A. baumannii clinical strains (169 strains; Example 15: 132), no unit in this line) of 0.03125. It also gave an MIC50 [4, 6] of 0.25 µg/mL (≈ 0.652 µM), an MIC90 [4, 6] of 16 µg/mL (≈ 41.7 µM) and a Minimum ([4]; lowest MIC among E. cloacae clinical strains (88 strains), no unit in this line) of 0.06. For the same compound, the “MEAN ± SD (Log10 CFU/g kidneys)” value (E. coli [ATCC25922]) was 4.41 ± 0.70 Log10 CFU/g kidneys, the “Mean Log10 CFU/g kidney reduction (wrt 4 h PI control: 6.03 Log10 CFU/g kidneys)” value (E. coli [ATCC25922]) was 1.62 Log10 CFU/g kidneys and the “MEAN ± SD (Log 10 CFU/ml Bladder)” value (E. coli [ATCC25922]; bladder) was 4.34 ± 0.32 Log 10 CFU/ml. The “Mean Log10 CFU/ml Bladder reduction (wrt 4 h PI control: 6.49 CFU/ml Bladder)” value (E. coli [ATCC25922]; bladder) was 2.15 Log10 CFU/ml, the “Log10 CFU/g (Left Kidney)” value (E. coli [ATCC25922]; individual animals) was 4.62 Log10 CFU/g and 4.41 Log10 CFU/g and 5.19 Log10 CFU/g and the “Log10 CFU/g (Right Kidney)” value (E. coli [ATCC25922]; individual animals) was 4.83 Log10 CFU/g and 3.13 Log10 CFU/g and 4.28 Log10 CFU/g. For the same compound, the “Log 10 CFU/ml Bladder” value (E. coli [ATCC25922]; individual animals, bladder) was 4.43 Log 10 CFU/ml and 4.62 Log 10 CFU/ml and 3.99 Log 10 CFU/ml, the MIC ATCC13883 ([5]; K. pneumoniae reference strain ATCC13883, no unit in this line) was 0.06 µg/mL (≈ 0.156 µM) and the MIC50 ([5]; Klebsiella pneumoniae) was 1 µg/mL (≈ 2.61 µM). It also gave an MIC90 ([5]; Klebsiella pneumoniae) of 16 µg/mL (≈ 41.7 µM) and a Minimum ([5]; lowest MIC among K. pneumoniae clinical strains (211 strains; Example 15: 176), no unit in this line) of 0.03.

From patent US10912780B2, “Heterocyclic compounds useful as anti-bacterial agents and method for production thereof” (Bugworks Research, Inc., priority 2017, dated 2021)
